Results: ChEMBL document CHEMBL5550181 (Bioorg Med Chem, 2024)
Active and inactive are the calls of the source. No cut-off for these calls is given here.

Columns and labels:
[1] = molecular target: T1, Proteasome subunit beta type-8 (Homo sapiens, UniProt P28062); assay: Inhibition of human LMP7 beta -5i subunit using Ac-ANW-AMC as substrate preincubated with compound for 30 mins followed by substrate addition and measured after 1 hr by fluorescence based analysis
T1 sequence (P28062 whole entry): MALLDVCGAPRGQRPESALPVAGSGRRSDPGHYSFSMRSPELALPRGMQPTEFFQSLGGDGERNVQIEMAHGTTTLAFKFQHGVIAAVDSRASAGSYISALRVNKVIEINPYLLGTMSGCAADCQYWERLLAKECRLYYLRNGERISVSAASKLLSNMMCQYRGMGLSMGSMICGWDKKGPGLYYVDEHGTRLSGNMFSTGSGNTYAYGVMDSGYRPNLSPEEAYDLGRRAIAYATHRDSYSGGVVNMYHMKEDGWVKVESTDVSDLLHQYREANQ

[2] = molecular target: T2, Proteasome subunit beta type-9 (Homo sapiens, UniProt P28065); assay: Inhibition of human LMP2 beta-1i subunit using Ac-PAL-AMC as substrate preincubated with compound for 30 mins followed by substrate addition and measured after 1 hr by fluorescence based analysis
T2 sequence (P28065 whole entry): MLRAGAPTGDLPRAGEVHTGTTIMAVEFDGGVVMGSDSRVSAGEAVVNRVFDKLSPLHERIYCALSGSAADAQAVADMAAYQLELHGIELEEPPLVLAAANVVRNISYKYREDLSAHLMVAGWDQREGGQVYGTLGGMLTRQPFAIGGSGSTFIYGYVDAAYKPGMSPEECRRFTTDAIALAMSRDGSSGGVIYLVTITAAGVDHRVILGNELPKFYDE

[3] = molecular target: T3, Proteasome Macropain subunit MB1 (Homo sapiens, UniProt P28074); assay: Inhibition of human 20S proteosome beta5c subunit using Ac-WLA-AMC as substrate preincubated with compound for 30 mins followed by substrate addition and measured after 1 hr by fluorescence based analysis
T3 sequence (P28074 whole entry): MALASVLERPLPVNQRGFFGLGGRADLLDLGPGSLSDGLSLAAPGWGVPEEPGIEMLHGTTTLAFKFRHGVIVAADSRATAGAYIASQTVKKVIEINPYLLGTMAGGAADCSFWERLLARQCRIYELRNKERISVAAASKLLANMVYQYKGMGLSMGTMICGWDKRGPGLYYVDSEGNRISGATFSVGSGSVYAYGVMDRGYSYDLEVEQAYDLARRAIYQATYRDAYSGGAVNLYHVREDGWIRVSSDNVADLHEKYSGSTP

Homo sapiens [4] = species: Homo sapiens; assay: Selectivity index, ratio of IC50 for inhibition of human 20S proteosome beta5c subunit using Ac-WLA-AMC as substrate to IC50 for inhibition of human LMP7 beta -5i subunit using Ac-ANW-AMC as substrate
[5] = Drug metabolism in human liver microsomes assessed as reactive metabolite formation by measuring dGSH trapping measured per mg of protein incubated for 60 mins in presence of NADPH by HPLC analysis; assay type: ADME, Microsome; conditions: 1 h
[6] = Permeability of the compound by PAMPA assay; assay type: ADME; conditions: read-out: permeability
[7] = Microsomal stability in mouse liver microsome assessed as intrinsic clearance; assay type: ADME; conditions: liver microsomes, read-out: CLH
Mus musculus [8] = assay: Inhibition of NP30-IgG production in NP-OVA-induced po dosed C57BL/6 mouse model administered for 9 days by ELISA analysis; assay type: functional, organism-based; conditions: dose 3-30 mg/kg, time 9.0 day
Mus musculus [9] = assay: Reduction in NP30-specific IgG level in GCB of NP-OVA-induced C57BL/6 mouse model at 10 to 30 mg/kg, po administered for 9 days by flow cytometry analysis; assay type: functional, organism-based; conditions: dose 10-30 mg/kg, time 9.0 day
Plasma = assay: Reduction in NP30-specific IgG level in plasma of NP-OVA-induced C57BL/6 mouse model at 30 mg/kg, po administered for 9 days by ELISA analysis; assay type: functional, organism-based; conditions: time 9.0 day
[10] = Effect on hematological parameters in C57BL/6 mouse at 3 to 30 mg/kg, po administered for 9 days; assay type: toxicity, organism-based; conditions: in vivo, 216 h, dose 3-30 mg/kg, time 9 day
Homo sapiens [11] = species: Homo sapiens; assay: Selectivity index, ratio of IC50 for inhibition of human 20S proteosome beta5c subunit using Ac-WLA-AMC as substrate to IC50 for inhibition of human LMP2 beta-1i subunit using Ac-PAL-AMC as substrate

Structure (SMILES) | IC50 [1] | IC50 [2] | IC50 [3] | Ratio IC50 (Homo sapiens [4]) | Drug metabolism [5] | Papp [6] | microsomal CLint [7] | Ratio IC50 (Homo sapiens [11]) | inhibition (Mus musculus [8]) | Activity (Mus musculus [9]) | Activity (Plasma) | Activity [10]
O=C(N[C@H](B(O)O)C1CCCC1)c1cn(C2CCCCC2)nn1 | 132 nM | 18 nM | 5200 nM | 39 | – | – | – | – | – | – | – | –
CC(C)C[C@H](NC(=O)c1cnn(C2CCCCC2)n1)B(O)O | 1570 nM | 62 nM | 6310 nM | 4 | – | – | – | – | – | – | – | –
O=C(N[C@H](B(O)O)C1CCCCC1)c1cn(C2CCCCC2)nn1 | 257 nM | 10 nM | 44600 nM | 174 | 342 pmol/h | 11.9 ×10⁻⁶ cm/s | 99 µL/min/mg | – | Dose-Dependent Effect | Active | Active | Non-Toxic
O=C(N[C@@H](CC1CCCC1)B(O)O)c1cn(C2CCCCC2)nn1 | 63 nM | < 5 nM | 15400 nM | 244 | 426 pmol/h | – | – | – | – | – | – | –
O=C(N[C@H](B(O)O)C1CCC1)c1cn(C2CCCCC2)nn1 | 655 nM | < 5 nM | 4950 nM | 8 | – | – | – | – | – | – | – | –
CC(C)C[C@H](NC(=O)c1cc(C2CCCCC2)no1)B(O)O | 192 nM | 5 nM | 3690 nM | 19 | – | – | – | – | – | – | – | –
O=C(N[C@@H](CC1CCCCC1)B(O)O)c1cn(C2CCCCC2)nn1 | 130 nM | < 10 nM | 19500 nM | 150 | 680 pmol/h | – | – | – | – | – | – | –
O=C(N[C@@H](CC1CCC1)B(O)O)c1cn(C2CCCCC2)nn1 | 198 nM | < 5 nM | 13100 nM | 66 | – | – | – | – | – | – | – | –

Further lines, with some results ahead:

IC50 [1] | IC50 [2] | IC50 [3] | Ratio IC50 (Homo sapiens [4]) | Drug metabolism [5] | Papp [6] | microsomal CLint [7] | Ratio IC50 (Homo sapiens [11]) | Structure (SMILES) | inhibition (Mus musculus [8]) | Activity (Mus musculus [9]) | Activity (Plasma) | Activity [10]
8 nM | > 80000 nM | 2410 nM | 302 | – | – | – | – | O=C(N[C@@H](Cc1coc2ccccc12)B(O)O)[C@@H]1C[C@H]2CC[C@@H]1O2 | – | – | – | –
18800 nM | 132 nM | > 80000 nM | > 4 | – | – | – | – | CC(C)C[C@H](NC(=O)c1cnn(C2CCCCC2)c1)B(O)O | – | – | – | –
82 nM | 10 nM | 2950 nM | 36 | – | – | – | – | CC(C)C[C@H](NC(=O)c1ccc(C2CCCCC2)nn1)B(O)O | – | – | – | –
1210 nM | 189 nM | 47300 nM | 39 | – | – | – | – | Cc1c(C(=O)N[C@@H](CC(C)C)B(O)O)nnn1C1CCCCC1 | – | – | – | –
75 nM | 557 nM | 720 nM | 9.6 | – | – | – | 1.29 | COc1ccc([C@@H](O)[C@H](NC(=O)[C@H](C)NC(=O)CN2CCOCC2)C(=O)N[C@@H](CC2=CCCC2)C(=O)[C@@]2(C)CO2)cc1 [ZETOMIPZOMIB] | – | – | – | –
73 nM | 3 nM | 3220 nM | 44 | 1273 pmol/h | – | – | 1070 | CC(C)C[C@H](NC(=O)c1cn(C2CCCCC2)nn1)B(O)O | – | – | – | –
145 nM | 9 nM | 2980 nM | 21 | – | – | – | – | CC(C)C[C@H](NC(=O)c1cc(C2CCCCC2)on1)B(O)O | – | – | – | –
888 nM | 226 nM | 19500 nM | 22 | – | – | – | – | CC(C)C[C@H](NC(=O)c1cc(C2CCCCC2)nn1C)B(O)O | – | – | – | –
11200 nM | 188 nM | > 80000 nM | > 7 | – | – | – | – | CC(C)C[C@H](NC(=O)c1cc(C2CCCCC2)n(C)n1)B(O)O | – | – | – | –
8 nM | 5 nM | 302 nM | 38 | 736 pmol/h | – | – | – | O=C(N[C@@H](Cc1ccccc1)B(O)O)c1cn(C2CCCCC2)nn1 | – | – | – | –
